Test results as given in patent publication US20060079453A1, “Hla binding peptides and their uses” (priority 2002, published 2006).

Columns and labels:
Assay in all cases: biochemical
Format in all cases: binding
HLA-DR DRB1*0901 (DR9) = HLA-DR DRB1*0901 (DR9) (Homo sapiens, UniProt P01903+P01911, A100R/A103E/D57H/D86V/F55Y/F60I/F76Y/I96F/K127E/L162R/M171V/P40D/Q125H/Q99R/R33Q/R42F/S133A/S66N/T210M/V115G/W38K/Y107V/Y59G/Y89S); settings: DRB1 *0901
HLA-DR DRB3*0101 (DR52) = HLA-DR DRB3*0101 (DR52) (Homo sapiens, UniProt P01903+P79483)
HLA-DR DRB4*0101 (DR53) = HLA-DR DRB4*0101 (DR53) (Homo sapiens, UniProt P01903+P13762, G164S); settings: DRB4 *0101
HLA-DR DRB1*0802 (DR8) = HLA-DR DRB1*0802 (DR8) (Homo sapiens, UniProt P01903+P01911, A100R/A103L/A169T/F76Y/H45Y/I96F/K41T/L162R/M171V/P40S/Q125H/Q178H/Q39Y/Q99D/R218S/R42G/S66Y/V115G/W38E)
HLA-DR DRB1*0101 (DR1) = HLA-DR DRB1*0101 (DR1) (Homo sapiens, UniProt P01903+P01911, A100R/D57E/F55L/F60I/F76Y/I96L/L162R/M171V/P40L/Q125E/R42F/V115G/Y59C); settings: DRB1 *0101
HLA-DR DRB1*0701 (DR7) = HLA-DR DRB1*0701 (DR7) (Homo sapiens, UniProt P01903+P01911, A100R/A102G/A103Q/D57E/D86V/E43K/F76Y/K127E/L162R/M171V/P40G/Q125H/Q99D/R33Q/R42Y/R54Q/S133A/S66F/T210M/V115G/Y107V/Y59L/Y89S); settings: DRB1 *0701
HLA-DR DRB1*0301 (DR3) = HLA-DR DRB1*0301 (DR3) (Homo sapiens, UniProt P01903+P01911, A100K/A102G/A103R/A169T/F55Y/I96L/K41T/L162R/M171V/P40S/Q125H/Q178H/Q39Y/R42S/S66N/T106N/T262R/W38E/Y61H)
HLA-DR DRB1*0301 (DR3), sequence (P01903 26-254 limits assumed, other chains not shown): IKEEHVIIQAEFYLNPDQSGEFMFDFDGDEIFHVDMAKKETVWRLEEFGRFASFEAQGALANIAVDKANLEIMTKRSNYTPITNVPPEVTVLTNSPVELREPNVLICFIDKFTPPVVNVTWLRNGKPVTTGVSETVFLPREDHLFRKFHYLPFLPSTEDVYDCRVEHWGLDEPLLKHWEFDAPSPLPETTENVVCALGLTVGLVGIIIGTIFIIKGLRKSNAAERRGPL

HLA-DR DRB5*0101 (DR51) = HLA-DR DRB5*0101 (DR51) (Homo sapiens, UniProt P01903+Q30154); settings: DRB5 *0101
HLA-DR DRB1*1501 (DR15) = HLA-DR DRB1*1501 (DR15) (Homo sapiens, UniProt P01903+P01911); settings: DRBI *1501
HLA-DR DRB1*1302 (DR13) = HLA-DR DRB1*1302 (DR13) (Homo sapiens, UniProt P01903+P01911, A100E/A169T/K41T/L162R/M171V/P40S/Q125H/Q178H/Q39Y/Q99D/R42S/S66N/T262R/V115G/W38E/Y61H); settings: DRBI *1302
HLA-DR DRB1*1302 (DR13), sequence (P01903 26-254 limits assumed, other chains not shown): as above

HLA-DR DRB1*0401 (DR4) = HLA-DR DRB1*0401 (DR4) (Homo sapiens, UniProt P01903+P01911, A100K/A169T/F76Y/I96L/K127E/L162R/M171V/N62H/P40V/Q125Y/R42H/S133A/S149N/S66Y/V115G/V209L/W38E); settings: DRB1 *0401
HLA-DR DRB1*1101 (DR11) = HLA-DR DRB1*1101 (DR11) (Homo sapiens, UniProt P01903+P01911, A100R/A169T/A87E/I96F/K41T/L162R/M171V/P40S/Q125H/Q178H/Q39Y/Q99D/R42S/S66Y/T262R/V115G/W38E); settings: DRB1 *1101
HLA-DR DRB1*1101 (DR11), sequence (P01903 26-254 limits assumed, other chains not shown): as above

| Structure (SMILES) | IC50 (HLA-DR DRB1*0901 (DR9)) | IC50 (HLA-DR DRB3*0101 (DR52)) | IC50 (HLA-DR DRB4*0101 (DR53)) | IC50 (HLA-DR DRB1*0802 (DR8)) | IC50 (HLA-DR DRB1*0101 (DR1)) | IC50 (HLA-DR DRB1*0701 (DR7)) | IC50 (HLA-DR DRB1*0301 (DR3)) | IC50 (HLA-DR DRB5*0101 (DR51)) | IC50 (HLA-DR DRB1*1501 (DR15)) | IC50 (HLA-DR DRB1*1302 (DR13)) | IC50 (HLA-DR DRB1*0401 (DR4)) | IC50 (HLA-DR DRB1*1101 (DR11)) |
| --- | --- | --- | --- | --- | --- | --- | --- | --- | --- | --- | --- | --- |
| CC[C@H](C)[C@H](NC(=O)[C@H](CO)NC(=O)[C@@H](NC(=O)CN)C(C)C)C(=O)N[C@@H](Cc1c[nH]c2ccccc12)C(=O)N[C@@H](CC(N)=O)C(=O)N1CCC[C@H]1C(=O)N[C@H](C(=O)N[C@@H](CC(C)C)C(=O)N[C@@H](CC(C)C)C(=O)N[C@@H](Cc1c[nH]c2ccccc12)C(=O)N[C@@H](CCC(N)=O)C(=O)N1CCC[C@H]1C(=O)N[C@H](C(=O)N1CCC[C@H]1C(=O)O)[C@@H](C)CC)[C@@H](C)CC | 3980 nM | 4430 nM | 492 nM | 11000 nM | 44 nM | 4990 nM | 56300 nM | 523 nM | 5 nM |  |  |  |
| CC[C@H](C)[C@H](NC(=O)[C@H](Cc1ccccc1)NC(=O)[C@H](Cc1c[nH]c2ccccc12)NC(=O)CNC(=O)[C@H](Cc1ccccc1)NC(=O)[C@H](CC(C)C)NC(=O)[C@H](Cc1ccccc1)NC(=O)CNC(=O)[C@@H](N)CC(C)C)C(=O)N[C@@H](CCCCN)C(=O)N[C@@H](CO)C(=O)N[C@@H](CO)C(=O)N[C@@H](CC(N)=O)C(=O)N[C@@H](CCC(=O)O)C(=O)N[C@@H](C)C(=O)O | 1700 nM | 681 nM | 9280 nM | 1420 nM | 10 nM | 2260 nM | > 75000 nM | 461 nM |  | 10100 nM | 1340 nM | 7300 nM |
| CC(C)C[C@H](NC(=O)[C@H](CCC(=O)O)NC(=O)[C@H](CCCCN)NC(=O)[C@H](C)NC(=O)[C@H](CC(C)C)NC(=O)[C@@H](NC(=O)[C@H](CO)NC(=O)[C@H](CCCNC(=N)N)NC(=O)[C@H](CC(=O)O)NC(=O)[C@H](CC(C)C)NC(=O)[C@H](Cc1c[nH]c2ccccc12)NC(=O)[C@H](Cc1ccccc1)NC(=O)[C@H](Cc1ccccc1)NC(=O)[C@H](CC(C)C)NC(=O)[C@@H](N)CC(C)C)C(C)C)C(=O)O | 518 nM | 86 nM | 7.5 nM | 163 nM | 2.9 nM |  | 6.3 nM |  | 34 nM | 24 nM | 2.6 nM |  |
| CC[C@H](C)[C@H](NC(=O)CNC(=O)[C@H](Cc1ccc(O)cc1)NC(=O)[C@H](CC(C)C)NC(=O)[C@H](CO)NC(=O)[C@H](CC(C)C)NC(=O)[C@H](CC(C)C)NC(=O)[C@H](CO)NC(=O)[C@@H](N)CC(C)C)C(=O)N[C@@H](Cc1c[nH]cn1)C(=O)N[C@@H](CCCCN)C(=O)N[C@@H](CCC(N)=O)C(=O)N[C@@H](CCCCN)C(=O)N[C@@H](CCC(=O)O)C(=O)N[C@@H](CCCCN)C(=O)O | 4960 nM | > 15000 nM | 772 nM | 1640 nM | 656 nM | > 35700 nM | > 81800 nM | 3.4 nM | 58 nM | > 35000 nM | 4440 nM |  |
| CSCC[C@H](NC(=O)CNC(=O)CNC(=O)[C@H](CCCNC(=N)N)NC(=O)[C@@H](NC(=O)[C@H](CCC(N)=O)NC(=O)[C@H](C)NC(=O)[C@@H](NC(=O)[C@@H](NC(=O)[C@H](CC(C)C)NC(=O)[C@H](Cc1c[nH]cn1)NC(=O)[C@H](Cc1ccc(O)cc1)NC(=O)[C@H](CCCCN)NC(=O)[C@H](Cc1ccccc1)NC(=O)[C@@H](N)CCSC)[C@@H](C)O)C(C)C)C(C)C)C(=O)O | 266 nM | 3650 nM |  | 70 nM | 16 nM | 72 nM | 29000 nM | 5.8 nM | 1200 nM | 1620 nM | 18 nM |  |
| CC(C)C[C@H](NC(=O)[C@H](Cc1ccccc1)NC(=O)CNC(=O)[C@H](CC(C)C)NC(=O)[C@H](CO)NC(=O)[C@H](CC(C)C)NC(=O)[C@H](CO)NC(=O)[C@H](C)NC(=O)[C@H](C)NC(=O)[C@H](CCCNC(=N)N)NC(=O)[C@H](C)NC(=O)[C@H](CC(C)C)NC(=O)[C@H](CC(C)C)NC(=O)[C@H](CC(C)C)NC(=O)[C@@H]1CCCN1)C(=O)O | 58 nM | > 9740 nM | 52 nM | 37 nM | 10 nM |  | > 81800 nM | 151 nM |  | 12 nM |  |  |
